Data published in patent publication US9085555B2, “Complement pathway modulators and uses thereof” (priority 2011, dated 2015).

Molecular target: Factor D (Homo sapiens (Human), UniProt P00746)
Assay: biochemical
Format: biochemical
Details: read-out: IC50

Sequence of Factor D (P00746 26-253): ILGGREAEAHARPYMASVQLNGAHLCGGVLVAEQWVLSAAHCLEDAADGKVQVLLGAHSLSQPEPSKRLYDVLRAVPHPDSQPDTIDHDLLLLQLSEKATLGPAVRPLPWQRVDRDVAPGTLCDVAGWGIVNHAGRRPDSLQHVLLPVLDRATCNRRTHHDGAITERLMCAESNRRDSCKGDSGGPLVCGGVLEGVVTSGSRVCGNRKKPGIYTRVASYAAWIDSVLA

Question: `CO[C@H]1[C@@H](C(=O)NCc2cccc(Cl)c2F)N(C(=O)Cn2nc(C(C)=O)c3ccc(C(=O)O)cc32)C[C@@H]1F` [Example 640, 3-Acetyl-1-{2-[(2S,3S,4S)-2-(3-chloro-2-fluoro-benzylcarbamoyl)-4-fluoro-3-methoxy-pyrrolidin-1-yl]-2-oxo-ethyl}-1H-indazole-6-carboxylic acid] was tested. Which IC50 did it give?
Answer: The IC50 was 8 nM.

Question: With `NC(=O)n1cc(CC(=O)N2CC[C@@H](O)[C@H]2C(=O)NCc2cccc(Cl)c2F)c2ccccc21` [Example 444, 3-{2-[(2S,3R)-2-(3-Chloro-2-fluoro-benzylcarbamoyl)-3-hydroxy-pyrrolidin-1-yl]-2-oxo-ethyl}-indole-1-carboxylic acid amide] as the compound, how does the IC50 read?
Answer: Its IC50 is 243 nM.

Question: `CC(=O)c1nn(CC(=O)N2[C@@H]3C[C@@H]3C[C@H]2C(=O)Nc2cncc(Br)n2)c2ccccc12` [Example 757, (1R,3S,5R)-2-[2-(3-Acetyl-indazol-1-yl)-acetyl]-2-aza-bicyclo[3.1.0]hexane-3-carboxylic acid (6-bromo-pyrazin-2-yl)-amide] was tested. Which IC50 did it give?
Answer: Its IC50 is 3 nM.

Question: How did the IC50 turn out when `COc1ccc(CNC(=O)[C@@H]2C[C@H](N)CN2C(=O)Nc2cn(C(N)=O)c3ccccc23)cc1Cl` [Example 54, (2S,4S)-4-Amino-pyrrolidine-1,2-dicarboxylic acid 1-[(1-carbamoyl-1H-indol-3-yl)-amide] 2-(3-chloro-4-methoxy-benzylamide)] was run?
Answer: Its IC50 is 1850 nM.

Question: How did the IC50 turn out when `NC(=O)n1cc(NC(=O)N2CCS[C@H]2C(=O)NCc2cccc(F)c2F)c2ccccc21` [Example 169, (S)-Thiazolidine-2,3-dicarboxylic acid 3-[(1-carbamoyl-1H-indol-3-yl)-amide] 2-(2,3-difluoro-benzylamide)] was run?
Answer: Its IC50 is 268 nM.

Question: For “(1R,3S,5S)-5-Hydroxymethyl- 2-aza-bicyclo[3.1.0]hexane- 2,3-dicarboxylic acid 3-(3- chloro-2-fluoro-benzylamide) 2-[(1-methylcarbamoyl-1H- indol-3-yl)-amide] [Example 265]”, which IC50 is on record?
Answer: Its IC50 is 83 nM.

Question: How did the IC50 turn out when `CC(=O)c1cn(CC(=O)N2C[C@H](F)C[C@H]2C(=O)NCc2cc(C(=O)O)cc(Cl)c2F)c2ccccc12` [Example 605, 3-[({(2S,4R)-1-[2-(3-Acetyl-indol-1-yl)-acetyl]-4-fluoro-pyrrolidine-2-carbonyl}-amino)-methyl]-5-chloro-4-fluoro-benzoic acid] was run?
Answer: Its IC50 is 54 nM.

Question: How did the IC50 turn out when `CCOC(=O)Cc1ccc2c(c1)c(NC(=O)N1[C@@H]3C[C@@H]3C[C@H]1C(=O)NCc1cccc(Cl)c1F)cn2C(N)=O` [Example 306, (1-carbamoyl-3-{[(1R,3S,5R)-3-(3-chloro-2-fluoro-benzylcarbamoyl)-2-aza-bicyclo[3.1.0]hexane-2-carbonyl]-amino}-1H-indol-5-yl)-acetic acid ethyl ester] was run?
Answer: Its IC50 is 4 nM.

Question: Which IC50 does the source give for `NC(=O)n1cc(NC(=O)N2CCS[C@H]2C(=O)N[C@H](CO)c2cccc(Cl)c2F)c2ccccc21` [Example 253, (S)-Thiazolidine-2,3-dicarboxylic acid 3-[(1-carbamoyl-1H-indol-3-yl)-amide] 2-{[(S)-1-(3-chloro-2-fluoro-phenyl)-2-hydroxy-ethyl]-amide}] here?
Answer: The IC50 was 1070 nM.

Question: For `CN[C@H]1C[C@@H](C(=O)NCc2cccc(Cl)c2F)N(C(=O)Cn2cc(C(C)=O)c3ccccc32)C1` [Example 608, (2S,4S)-1-[2-(3-Acetyl-indol-1-yl)-acetyl]-4-methylamino-pyrrolidine-2-carboxylic acid 3-chloro-2-fluoro-benzylamide], which IC50 is on record?
Answer: Its IC50 is 1840 nM.

Question: With `NC(=O)n1cc(CC(=O)N2CCS[C@H]2C(=O)NCc2cccc(Cl)c2F)c2ccccc21` [Example 450, 3-{2-[(S)-2-(3-Chloro-2-fluoro-benzylcarbamoyl)-thiazolidin-3-yl]-2-oxo-ethyl}-indole-1-carboxylic acid amide] as the compound, how does the IC50 read?
Answer: The IC50 was 25 nM.

Question: With `CO[C@H]1[C@@H](C(=O)Nc2cccc(Br)c2F)N(C(=O)Cn2nc(C(N)=O)c3ccccc32)C[C@@H]1F` [Example 755, 1-{2-[(2S,3S,4S)-2-(3-Bromo-2-fluoro-phenylcarbamoyl)-4-fluoro-3-methoxy-pyrrolidin-1-yl]-2-oxo-ethyl}-1H-indazole-3-carboxylic acid amide] as the compound, how does the IC50 read?
Answer: Its IC50 is 17 nM.
